From patent publication US9296778B2, “3′,5′-cyclic phosphate prodrugs for HCV infection” (Idenix Pharmaceuticals, Inc., priority 2012, dated 2016) come the findings set out here.

One data set relates to Zluc cells. Put plainly: cytotoxicity evaluation (CellTiter-Blue Cell Viability Assay). As to conditions: read-out: HCV Replicon CC50; Zluc cells, CellTiter-Blue. In general terms: Resazurin is reduced to fluorescent resorufin, in cell work by metabolically active cells.
A further data set relates to HCV genotype 1b replicon. Nature of the data set: HCV Replicon Assay. Particulars: Zluc cells (Huh-7-derived, HCV genotype 1b replicon, luciferase reporter), 72 hours, read-out: HCV Replicon EC50. It counts as cell-based. Here is the method:
Huh-7-derived cell line (Zluc) that harbors an HCV genotype 1b replicon and a luciferase reporter gene was grown in Dulbecco's Modified Eagle Medium (DMEM) supplemented with 10% fetal bovine serum, 2 mM GlutaMAX, 1% MEM nonessential amino acids, 100 IU/mL penicillin, 100 μg/mL streptomycin, and 0.5 mg/mL Geneticin® (G418). For dose response testing the cells were seeded in 96-well plates at 7.5×10^3 cells per well in a volume of 50 μL, and incubated at 37° C./5% CO2. Drug solutions were made up freshly in Huh-7 media as 2× stocks. Ten additional 5-fold dilutions were prepared from these stocks in DMEM without G418. At least three hours after Zluc cells were seeded, drug treatment was initiated by adding 50 μL of drug dilutions to the plates in duplicate. Final concentrations of drug ranged from 100 μM to […]. Cells were then incubated at 37° C./5% CO2. Alternatively, compounds were tested at two concentrations (1 μM and 10 μM). […] For this, media was removed from the plates via gentle tapping. Fifty microliters of ONE-glo luciferase assay reagent was added to each well. The plates were shaken gently for 3 min at room temperature and luminescence was measured on a Victor^3 V 1420 multilabel counter (Perkin Elmer) with a 1 second read time using a 700 nm cut-off filter. The EC50 values were calculated from dose response curves from the resulting best-fit equations determined by Microsoft Excel and XLfit 4.1 software. When screening at two fixed concentrations, the results were expressed as % inhibition at 1 μM and 10 μM.

The next data set relates to fresh human hepatocytes. Put plainly: Release of active metabolite in fresh human hepatocytes. As to conditions: 10 μM compound; for FHH TP Cmax: fresh human hepatocytes; for FHH TP AUC: fresh human hepatocytes, 6, 24 and 48 hours. The format is in vitro ADME. Here is the method: Plates of fresh human and mouse hepatocytes were obtained on ice. The medium was removed and replaced with hepatocyte culture medium (William's E supplemented with penicillin-streptomycin, 1% L-glutamine, 1% insulin-transferrin-selenium and 0.1 μM Dexamethasone (Invitrogen) or with Invitro GRO HI medium complemented with Torpedo antibiotics (Celsis)). Cells were left overnight in an incubator at 37° C. to acclimatize to culture and the medium.
Hepatocyte incubations were conducted at a final volume of 0.5 mL hepatocyte culture medium/well (0.8 million cells/well for human and 0.5 million cells/well for mouse; 12 well plate no overlay, collagen coat). Culture medium from overnight incubation of cells was removed and replaced with fresh medium, pre-warmed to 37° C., containing 10 μM of test compound from a stock solution in DMSO (final DMSO concentration was 0.1%). At each specific time point, incubation medium was removed and cell monolayers were carefully washed two times with ice-cold PBS. Following the last wash, all PBS was carefully removed and 1.0 mL of extraction solution (ice-cold 70% methanol/30% water) added. Cells were scraped off and suspended in the extraction solution, transferred to 2 mL polypropylene microfuge tubes and intracellular contents extracted overnight at −20° C.
After the overnight treatment the cellular extracts were prepared by centrifugation at 16,000×g for 10 min to remove cellular debris. The remaining sample was then dried using a refrigerated centrivap concentrator. Dry extracts were reconstituted in 1000 μL of HPLC-grade water and centrifuged at 16,000×g for 10 min. Aliquots (100 μL each) of the supernatant were transferred into a 96 well plate and internal standard (4 ng/mL final concentration) was added as the internal standard (IS) for LC-MS/MS analysis.
The incubation time points were 6, 24 and 48 hours for human hepatocytes and 1, 4, 8, 12 and 24 hours for mouse hepatocytes.

The next data set is described as follows: in vitro. Particulars: human, HCV Replicon CC50, Zluc cells, CellTiter-Blue. Background: In antiviral work, replicon cells carry a viral genome segment that copies itself.

Each structure is given as a SMILES string. Where two headings read alike, the source gives them in different places. A value given as a limit tells only on which side of the number the result lay.

Take `CCOc1nc(N)nc2c1ncn2[C@@H]1O[C@@H]2COP(=O)(OC[C@H](C)NC(=O)OCC(C)C)O[C@H]2[C@@]1(C)F` (single isomer, unassigned; diastereomer 1) [Compound 12 Diastereomer 1]: the CC50 in the data set on Zluc cells is more than 50000 nM. Also, the EC50 in the data set with HCV genotype 1b replicon was less than 250 nM.
With `CCOc1nc(N)nc2c1ncn2[C@@H]1O[C@@H]2COP(=O)(OCCSC(=O)C(C)(C)CO)O[C@H]2[C@@]1(C)OC(C)=O` (single isomer, unassigned; diastereomer 1) [Compound 16 Diastereomer 1], in the data set on Zluc cells, the CC50 was less than 50000 nM. For the same compound, in the data set with HCV genotype 1b replicon, the EC50 was less than 250 nM.
With `CC(C)(CO)C(=O)SCCOP1(=O)OC[C@H]2O[C@@H](n3cnc4c(=O)[nH]c(N)nc43)[C@](C)(F)[C@@H]2O1` (single isomer, unassigned; diastereomer 1) [Compound 17 Diastereomer 1], the CC50 in the data set with Zluc cells was more than 50000 nM. Moreover, the EC50 in the data set with HCV genotype 1b replicon lay within 250 to 1000 nM.
Turning to `CC(=O)OCC(C)(C)C(=O)SCCOP1(=O)OC[C@H]2O[C@@H](n3cnc4c(=O)[nH]c(N)nc43)[C@](C)(F)[C@@H]2O1` (single isomer, unassigned; diastereomer 1) [Compound 18 Diastereomer 1], the CC50 in the data set with Zluc cells was more than 50000 nM. The EC50 in the data set with HCV genotype 1b replicon lay within 250 to 1000 nM.
In the case of `CCOc1nc(N)nc2c1ncn2[C@@H]1O[C@@H]2COP(=O)(OCCSC(=O)C(C)(C)COC(C)=O)O[C@H]2[C@@]1(C)OC(C)=O` (single isomer, unassigned; diastereomer 1) [Compound 19 Diastereomer 1], in the data set on Zluc cells, the CC50 is less than 50000 nM. In addition, the EC50 with HCV genotype 1b replicon was less than 250 nM.
Regarding `CCOc1nc(N)nc2c1ncn2[C@@H]1O[C@@H]2COP(=O)(OCCC(=O)OC(C)C)O[C@H]2[C@@]1(C)O` (single isomer, unassigned; diastereomer 1) [Compound 22 Diastereomer 1], the CC50 with Zluc cells is more than 50000 nM. Further, in the data set with fresh human hepatocytes, the “FHH TP Cmax” value was 44 pmol/mill cells and the “FHH TP AUC” value turned out to be 1247 pmol · hr/mill cells. Further, the EC50 in the data set on HCV genotype 1b replicon was less than 250 nM.
In the case of `COc1nc(N)nc2c1ncn2[C@@H]1O[C@@H]2COP(=O)(OCC(=O)OC(C)C)O[C@H]2[C@@]1(C)F` (single isomer, unassigned; diastereomer 1) [Compound 26 Diastereomer 1], in the data set with fresh human hepatocytes, the “FHH TP Cmax” value is “BLD^a” and the “FHH TP AUC” value is given as “BLD^a”.
Turning to `CCOC(=O)COP1(=O)OC[C@H]2O[C@@H](n3cnc4c(OCC)nc(N)nc43)[C@](C)(F)[C@@H]2O1` (single isomer, unassigned; diastereomer 2) [Compound 7 Diastereomer 2], the EC50 with HCV genotype 1b replicon is less than 250 nM.
For the compound `CC(C)(CO)C(=O)SCCOP1(=O)OC[C@H]2O[C@@H](n3cnc4c(=O)[nH]c(N)nc43)[C@](C)(F)[C@@H]2O1` (single isomer, unassigned; diastereomer 2) [Compound 17 Diastereomer 2], the CC50 in the data set on Zluc cells was less than 50000 nM. In addition, the concentration giving a half-maximal response (EC50) in the data set on HCV genotype 1b replicon was less than 250 nM.
For the compound `CC(=O)OCC(C)(C)C(=O)SCCOP1(=O)OC[C@H]2O[C@@H](n3cnc4c(=O)[nH]c(N)nc43)[C@](C)(F)[C@@H]2O1` (single isomer, unassigned; diastereomer 2) [Compound 18 Diastereomer 2], in the data set on Zluc cells, the CC50 was less than 50000 nM. The EC50 with HCV genotype 1b replicon was less than 250 nM.
The like results for `CCOc1nc(N)nc2c1ncn2[C@@H]1O[C@@H]2COP(=O)(OCCSC(=O)C(C)(C)COC(C)=O)O[C@H]2[C@@]1(C)OC(C)=O` (single isomer, unassigned; diastereomer 2) [Compound 19 Diastereomer 2] were, in that order, less than 50000 nM and less than 250 nM.
Compound `CCOC(=O)N[C@@H](C)COP1(=O)OC[C@H]2O[C@@H](n3cnc4c(OCC)nc(N)nc43)[C@](C)(F)[C@@H]2O1` (stereo partly drawn) [Compound 11] registered a CC50 in the data set “in vitro” of more than 50000 nM. In the data set with HCV genotype 1b replicon (Hepatitis C virus, 72 h), the EC50 is less than 250 nM.
For `CCOc1nc(N)nc2c1ncn2[C@@H]1O[C@@H]2COP(=O)(OC[C@H](NC(=O)OC)C(=O)OC(C)C)O[C@H]2[C@@]1(C)F` (stereo partly drawn) [Compound 15], in the data set on fresh human hepatocytes, the “FHH TP Cmax” value is reported as 36 pmol/mill cells and the “FHH TP AUC” value worked out at 1335 pmol · hr/mill cells. The CC50 in the data set “in vitro” is more than 50000 nM. Also, the EC50 in the data set with HCV genotype 1b replicon (Hepatitis C virus, 72 h) was less than 250 nM.
`CCOc1nc(N)nc2c1ncn2[C@@H]1O[C@@H]2COP(=O)(OCCC(=O)OC(C)C)O[C@H]2[C@@]1(C)F` (stereo partly drawn) [Compound 21] yielded a CC50 in the data set “in vitro” of more than 50000 nM. Further, the EC50 with HCV genotype 1b replicon (Hepatitis C virus, 72 h) is less than 250 nM.
`CCOC(=O)CCCOP1(=O)OC[C@H]2O[C@@H](n3cnc4c(OC)nc(N)nc43)[C@](C)(O)[C@@H]2O1` (stereo partly drawn) [Compound 25]: the CC50 in “in vitro” was more than 50000 nM. In the data set on HCV genotype 1b replicon (Hepatitis C virus, 72 h), the EC50 is 250 to 1000 nM.
For `COc1nc(N)nc2c1ncn2[C@@H]1O[C@@H]2COP(=O)(OCC(=O)OC(C)C)O[C@H]2[C@@]1(C)F` (stereo partly drawn) [Compound 26], the CC50 in the data set “in vitro” was more than 50000 nM. In addition, in the data set on HCV genotype 1b replicon (Hepatitis C virus, 72 h), the EC50 is less than 250 nM.
The matching figures for `COc1nc(N)nc2c1ncn2[C@@H]1O[C@@H]2COP(=O)(OCC(=O)OCc3ccccc3)O[C@H]2[C@@]1(C)O` (stereo partly drawn) [Compound 27]: less than 50000 nM and less than 250 nM.
`COc1nc(N)nc2c1ncn2[C@@H]1O[C@@H]2COP(=O)(OCC(=O)OC(C)C)O[C@H]2[C@@]1(C)O` (stereo partly drawn) [Compound 28] returned a CC50 in the data set “in vitro” of less than 50000 nM. Moreover, in the data set with HCV genotype 1b replicon (Hepatitis C virus, 72 h), the EC50 was less than 250 nM.
Take `CCOC(=O)CCCOP1(=O)OC[C@H]2O[C@@H](n3cnc4c(OC)nc(N)nc43)[C@](C)(O)[C@@H]2O1` (stereo partly drawn) [Compound 29]: the half-maximal cytotoxic concentration (CC50) in the data set with Zluc cells was less than 50000 nM. In the data set on HCV genotype 1b replicon, the EC50 is less than 250 nM.
Consider `CCOC(=O)[C@@H](C)OP1(=O)OC[C@H]2O[C@@H](n3cnc4c(OC)nc(N)nc43)C(C)(O)[C@@H]2O1` (stereo partly drawn) [Compound 30], for which the CC50 in the data set “in vitro” was more than 50000 nM. The EC50 in the data set on HCV genotype 1b replicon (Hepatitis C virus, 72 h) fell in the range of 1000 to 10000 nM.
On to `CCOC(=O)C[C@@H](C)OP1(=O)OC[C@H]2O[C@@H](n3cnc4c(OC)nc(N)nc43)[C@](C)(O)[C@@H]2O1` (stereo partly drawn) [Compound 31], for which the CC50 in “in vitro” is more than 50000 nM. The concentration giving a half-maximal response (EC50) in the data set on HCV genotype 1b replicon (Hepatitis C virus, 72 h) was in the range of 250 to 1000 nM.
The like results for `COc1nc(N)nc2c1ncn2[C@@H]1O[C@@H]2COP(=O)(OCC(=O)OC(C)C)O[C@H]2[C@@]1(C)OC(C)=O` (stereo partly drawn) [Compound 32] were, in that order, less than 50000 nM and less than 250 nM.
Compound `COC(=O)c1ccccc1COP1(=O)OC[C@H]2O[C@@H](n3cnc4c(OC)nc(N)nc43)[C@](C)(O)[C@@H]2O1` (stereo partly drawn) [Compound 33] returned a CC50 in the data set “in vitro” of less than 50000 nM. For the same compound, the EC50 in the data set with HCV genotype 1b replicon (Hepatitis C virus, 72 h) is less than 250 nM.
`CCOC(=O)OC(C)OP1(=O)OC[C@H]2O[C@@H](n3cnc4c(OC)nc(N)nc43)[C@](C)(O)[C@@H]2O1` (stereo partly drawn) [Compound 34]: in “in vitro”, the CC50 was less than 50000 nM. Moreover, the EC50 with HCV genotype 1b replicon (Hepatitis C virus, 72 h) is less than 250 nM.
In the case of `COc1nc(N)nc2c1ncn2[C@@H]1O[C@@H]2COP(=O)(OCCSSCCO)O[C@H]2[C@@]1(C)O` (stereo partly drawn) [Compound 37], the CC50 in “in vitro” was less than 50000 nM. Moreover, the EC50 in the data set with HCV genotype 1b replicon (Hepatitis C virus, 72 h) was less than 250 nM.
Compound `CCOc1nc(N)nc2c1ncn2[C@@H]1O[C@@H]2COP(=O)(OCCCNC(=O)[C@@H]3OC(C)(C)OCC3(C)C)O[C@H]2[C@@]1(C)O` (stereo partly drawn) [Compound 38] displayed a CC50 in “in vitro” of more than 50000 nM. Besides, the EC50 in the data set with HCV genotype 1b replicon (Hepatitis C virus, 72 h) was less than 250 nM.
`CCOc1nc(N)nc2c1ncn2[C@@H]1O[C@@H]2COP(=O)(OCCCNC(=O)[C@H](O)C(C)(C)CO)O[C@H]2[C@@]1(C)O` (stereo partly drawn) [Compound 39] returned a CC50 in the data set “in vitro” of less than 50000 nM. Further, in the data set with HCV genotype 1b replicon (Hepatitis C virus, 72 h), the EC50 was less than 250 nM.

A word on the CC50: it is the concentration giving 50% cytotoxicity. Broadly, the EC50 is the midpoint of the concentration-response curve.
